Source: the NIST ThermoML archive (doi:10.1016/j.tca.2014.05.028)
Numbers after ± are expanded uncertainties.

How the values were obtained:
[1] = Molar enthalpy of transition or fusion; settings: DSC
[2] = for mass density: 101 kPa, Liquid, Vibrating tube method; for Triple point temperature: DTA

Row | Molar enthalpy of transition or fusion ([1]; Crystal 1) [kcal/mol] | Molar enthalpy of transition or fusion ([1]; Crystal 2) [kcal/mol] | mass density ([2]; 298.15 K) [kg/m3] | mass density ([2]; 303.15 K) [kg/m3] | mass density ([2]; 308.15 K) [kg/m3] | mass density ([2]; 313.15 K) [kg/m3] | mass density ([2]; 318.15 K) [kg/m3] | mass density ([2]; 323.15 K) [kg/m3] | mass density ([2]; 328.15 K) [kg/m3] | mass density ([2]; 333.15 K) [kg/m3] | mass density ([2]; 338.15 K) [kg/m3] | mass density ([2]; 343.15 K) [kg/m3] | Triple point temperature ([2]; Crystal 1) [K] | Triple point temperature ([2]; Crystal 2) [K] | Molar enthalpy of transition or fusion ([1]; Crystal) [kcal/mol] | Triple point temperature ([2]; Crystal) [K] | SMILES
1 | 2.14 ± 0.0789 | 0.466 ± 0.0382 | 1188.96 ± 0.4 | 1185.14 ± 0.4 | 1181.35 ± 0.4 | 1177.58 ± 0.4 | 1173.84 ± 0.39 | 1170.12 ± 0.39 | 1166.42 ± 0.39 | 1162.75 ± 0.39 | 1159.1 ± 0.38 | 1155.48 ± 0.38 | 431.55 ± 0.41 | 326.85 ± 0.41 |  |  | CCCCC[N+]1(C)CCCC1.[Br-] [1-methyl-1-pentylpyrrolidinium bromide]
2 | 2.59 ± 0.0908 | 0.698 ± 0.0478 | 1259.96 ± 1.4 | 1255.92 ± 1.4 | 1251.9 ± 1.4 | 1247.91 ± 1.4 | 1243.94 ± 1.4 | 1240 ± 1.4 | 1236.08 ± 1.4 | 1232.19 ± 1.4 | 1228.32 ± 1.3 | 1224.48 ± 1.3 | 476.68 ± 0.41 | 465.12 ± 0.41 |  |  | CCC[N+]1(C)CCCC1.[Br-] [1-methyl-1-propylpyrrolidinium bromide]
3 |  |  | 1221.19 ± 2.9 | 1217.27 ± 2.9 | 1213.38 ± 2.8 | 1209.51 ± 2.8 | 1205.66 ± 2.8 | 1201.84 ± 2.8 | 1198.05 ± 2.8 | 1194.28 ± 2.8 | 1190.53 ± 2.7 | 1186.8 ± 2.7 |  |  | 3.14 ± 0.108 | 487.67 ± 0.41 | CCCC[N+]1(C)CCCC1.[Br-] [1-butyl-1-methylpyrrolidinium bromide]
